A word on the Kd: it is the equilibrium constant for the complex coming apart. The term half-life denotes how long it takes for the measured level to halve.

In data set [1] the target is T1, Lanosterol 14-alpha demethylase (Homo sapiens, UniProt Q16850).
T1 sequence (Q16850 whole entry): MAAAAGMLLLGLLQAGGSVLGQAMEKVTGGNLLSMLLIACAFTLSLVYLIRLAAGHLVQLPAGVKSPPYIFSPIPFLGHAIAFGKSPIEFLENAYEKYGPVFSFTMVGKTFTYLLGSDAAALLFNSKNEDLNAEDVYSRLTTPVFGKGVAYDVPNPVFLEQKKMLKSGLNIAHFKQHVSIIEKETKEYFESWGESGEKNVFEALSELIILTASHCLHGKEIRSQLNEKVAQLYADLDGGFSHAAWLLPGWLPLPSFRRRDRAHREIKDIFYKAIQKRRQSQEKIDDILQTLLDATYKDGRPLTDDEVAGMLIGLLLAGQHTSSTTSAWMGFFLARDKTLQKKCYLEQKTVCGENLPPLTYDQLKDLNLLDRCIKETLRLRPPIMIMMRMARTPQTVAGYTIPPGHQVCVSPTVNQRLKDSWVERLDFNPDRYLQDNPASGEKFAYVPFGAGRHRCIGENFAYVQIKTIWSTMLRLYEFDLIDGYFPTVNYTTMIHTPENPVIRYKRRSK
Kind of data set: Binding affinity for cytochrome P450 14DM. Details: species or system Saccharomyces cerevisiae.

Data set [2] can be described thus: Photolysis at 264 nm in phosphate buffer. The class given is ADME. Details: dose or concentration left out as unconfirmed.
The next data set has as its system P45014DM. Briefly: Photolysis after effective incorporation into P45014DM at 313 nm in phosphate buffer. The data set is classed as ADME. More on the design: dose or concentration left out as unconfirmed. To be noted: compound incorporated into P45014DM.
The nature of data set [3]: Specific activity was determined. The data set is classed as functional. To be noted: tested as the 3H-labelled form.

`[N-]=[N+]=Nc1ccc(C(=O)Cn2ccnc2)cc1` had a Kd in data set [1] of 18 µM.

For the compound `[3H]C(O)(Cn1ccnc1)c1ccc(N=[N+]=[N-])cc1` (configuration not stated), the half-life turned out to be 2.5 min in data set [2] and 45 min in the data set on P45014DM. In data set [1], `[N-]=[N+]=Nc1ccc(-n2ccnc2)cc1` came in with a Kd of 25 µM. On the same count and under the same terms, then `[N-]=[N+]=Nc1ccc(Cn2ccnc2)cc1`, with 15 µM.

`[N-]=[N+]=Nc1ccc(C(O)Cn2ccnc2)cc1` (configuration not stated) displayed an Activity in data set [3] of 26.4 mCi/M. The compound also showed a Kd in data set [1] of 1.4 µM.

Source of the values: ChEMBL document CHEMBL1126167, “Synthesis and evaluation of photoaffinity probes directed at lanosterol 14-demethylase (P-45014DM)” (Bioorg Med Chem Lett, 1992).
